One assay has as its target COX-1. Put plainly: Evaluation of COX-1 activity in vitro (PGE2 ELISA, recombinant enzyme). Format: biochemical, human or murine. Conditions: arachidonic acid 10 μM, pH 8.0, pre-incubation 10-20 minutes. How it is done:
(§1) a. Preparation of recombinant COX baculoviruses
(§2) Recombinant COX-1 and COX-2 were prepared as scribed by Gierse et al, [J. Biochem., 305, 479-84 (1995)]. […] Recombinant baculoviruses were isolated by transfecting 4 μg of baculovirus transfer vector DNA into SF9 insect cells (2×10^8) along with 200 ng of linearized baculovirus plasmid DNA by the calcium phosphate method. See M. D. Summers and G. E. Smith, A Manual of Methods for Baculovirus Vectors and Insect Cell Culture Procedures, Texas Agric. Exp. Station Bull. 1555 (1987). Recombinant viruses were purified by three rounds of plaque purification and high titer (10^7 -10^8 pfu/mL) stocks of virus were prepared. For large scale production, SF9 insect cells were infected in 10 liter fermentors (0.5×10^6 /mL) with the recombinant baculovirus stock such that the multiplicity of infection was 0.1. After 72 hours the cells were centrifuged and the cell pellet homogenized in Tris/Sucrose (50 mM: 25%, pH 8.0) containing 1% 3-[(3-cholamidopropyl)dimethylammonio]-1-propanesulfonate (CHAPS). The nomogenate was centrifuged at 10,000×G for 30 minutes, and the resultant supernatant was stored at -80° C. before being assayed for COX activity.
(§3) COX activity was assayed as PGE2 formed/μg protein/time using an ELISA to detect the prostaglandin released. CHAPS-solubilized insect cell membranes containing the appropriate COX enzyme were incubated in a potassium phosphate buffer (50 mM, pH 8.0) containing epinephrine, phenol, and heme with the addition of arachidonic acid (10 μM). […] Any reaction between the arachidonic acid and the enzyme was stopped after ten minutes at 37° C./room temperature by transferring 40 μl of reaction mix into 160 μl ELISA buffer and 25 μM indomethacin. The PGE2 formed was measured by standard ELISA technology (Cayman Chemical).
(In general: In an ELISA, binding on a coated surface is turned into a signal by an enzyme label.)

The target in a further assay is COX-2. Put plainly: Evaluation of COX-2 activity in vitro (PGE2 ELISA, recombinant enzyme). In kind it is biochemical, human or murine. The note with it: arachidonic acid 10 μM, pH 8.0, pre-incubation 10-20 minutes. The procedure:
The COX-2 inhibition activity of the compounds of this invention illustrated in the Examples was determined by the following methods.
as §1, §2, §3

The results in this text go back to patent US5859257A, “Isoxazole compounds as cyclooxygenase inhibitors” (G. D. Searle & Co., priority 1996, dated 1999).

The term IC50 denotes the concentration needed to halve the response being measured.

As to `Cc1onc(-c2ccccc2)c1-c1ccc(S(=O)(=O)O)cc1` [Example 1l, 4-[5-methyl-3-phenylisoxazol-4-yl]benzenesulfonic acid], the results for the IC50 on COX-1 and at COX-2 were more than 100 µM and 1.5 µM, respectively.

As for `NS(=O)(=O)c1ccc(-c2c(-c3cccc(F)c3)noc2CC(=O)O)cc1` [Example 55, [4-(4-Aminosulfonylphenyl)-3-(3-fluorophenyl)isoxazol-5-yl]acetic acid], the IC50 was more than 100 µM on COX-1 and less than 0.1 µM on COX-2.

Consider `CCCc1noc(-c2ccccc2)c1-c1ccc(S(N)(=O)=O)cc1` [Example 16, 4-[5-Phenyl-3-propylisoxazol-4-yl]benzenesulfonamide], for which the IC50 on COX-1 was more than 100 µM; on COX-2, 3.1 µM.

Take `COc1ccc(-c2noc(C(F)F)c2-c2ccc(S(N)(=O)=O)cc2)cc1` [Example 45, 4-[5-Difluoromethyl-3-(4-methoxyphenyl)isoxazol-4-yl]benzenesulfonamide]: the IC50 at COX-1 was 16 µM; at COX-2 it was less than 0.1 µM.

As to `COc1ccc(-c2noc(C)c2-c2ccc(S(C)(=O)=O)cc2)cc1Cl` [Example 7, 3-(3-Chloro-4-methoxyphenyl)-5-methyl-4-[4-methylsulfonylphenyl]isoxazole], the figures for the IC50 at COX-1 and on COX-2 were more than 100 µM and 86.7 µM, respectively.

In the case of `CCc1noc(-c2ccccc2C)c1-c1ccc(S(N)(=O)=O)cc1` [Example 54, 4-[3-Ethyl-5-(2-methylphenyl)isoxazol-4-yl]benzenesulfonamide], the figures for the concentration for half-maximal inhibition (IC50) at COX-1 and at COX-2 were more than 100 µM and 1.8 µM, respectively.

On to `Cc1noc(-c2ccc(F)cc2)c1-c1ccc(S(N)(=O)=O)cc1` [Example 21, 4-[5-(4-fluorophenyl)-3-methylisoxazol-4-yl]benzenesulfonamide], for which the half-maximal inhibitory concentration (IC50) was more than 100 µM on COX-1 and 5.2 µM on COX-2.

As for `NS(=O)(=O)c1ccc(-c2c(-c3ccccc3)noc2CCl)cc1` [Example 1k, 4-[5-chloromethyl-3-phenylisoxazol-4-yl]benzenesulfonamide], the IC50 at COX-1 was 50.7 µM; at COX-2 it was less than 0.1 µM.

As to `COC(=O)c1ccc(OCc2onc(-c3ccccc3)c2-c2ccc(S(N)(=O)=O)cc2)cc1` [Example 50, Methyl 4-[[4-[4-(aminosulfonyl)phenyl]-3-phenylisoxazol-5-yl]methoxy]benzoate], the figures for the IC50 on COX-1 and on COX-2 were more than 100 µM and less than 0.1 µM, respectively.

On to `Cc1onc(-c2ccncc2)c1-c1ccc(S(N)(=O)=O)cc1` [Example 4f, 4-[5-methyl-3-(4-pyridyl)-isoxazol-4-yl]benzenesulfonamide], for which the IC50 on COX-1 and at COX-2 was more than 100 µM throughout.

On to `CS(=O)(=O)c1ccc(-c2c(-c3ccccc3)noc2CO)cc1` [Example 61, 5-Hydroxymethyl-4-(4-methylsulfonyl)phenyl-3-phenyl-isoxazole], for which the IC50 is more than 100 µM at COX-1 and 0.2 µM on COX-2.

`NS(=O)(=O)c1ccc(-c2c(-c3ccccc3)noc2COCC(=O)O)cc1` [Example 35, [[4-[4-(Aminosulfonyl)phenyl]-3-phenylisoxazol-5-yl]-methoxy]acetic acid]: the IC50 at COX-1 was more than 100 µM; on COX-2 it was 5.1 µM.

For the molecule `CCCc1onc(-c2ccccc2)c1-c1ccc(S(N)(=O)=O)cc1` [Example 1b, 4-[5-propyl-3-phenylisoxazol-4-yl]benzenesulfonamide], the IC50 is 13.2 µM at COX-1 and less than 0.1 µM on COX-2.

Consider `CCc1onc(-c2ccccc2)c1-c1ccc(S(N)(=O)=O)cc1` [Example 1a, 4-[5-ethyl-3-phenylisoxazol-4-yl]benzenesulfonamide], for which the values for the IC50 on COX-1 and at COX-2 were 17.4 µM and less than 0.1 µM, respectively.

Turning to `NS(=O)(=O)c1ccc(-c2c(-c3ccccc3)noc2COCCO)cc1` [Example 60, 4-[5-(2-Hydroxyethyl)oxymethyl-3-phenylisoxazol-4-yl]benzenesulfonamide], the IC50 was more than 100 µM on COX-1 and 0.2 µM on COX-2.

`Cc1noc(-c2ccc(S(N)(=O)=O)cc2)c1-c1ccccc1` [Example 23, 4-[3-Methyl-4-phenylisoxazol-5-yl]benzenesulfonamide]: the IC50 at COX-1 amounted to 56 µM; at COX-2, 0.2 µM.

For the molecule `CCc1noc(-c2ccc(F)cc2)c1-c1ccc(S(N)(=O)=O)cc1` [Example 30, 4-[3-Ethyl-5-(4-fluorophenyl)isoxazol-4-yl]benzenesulfonamide], the figures for the IC50 on COX-1 and at COX-2 were 41 µM and less than 0.1 µM, respectively.

For the molecule `Cc1ccc(-c2noc(C)c2-c2ccc(S(N)(=O)=O)cc2)cc1Cl` [Example 4d, 4-[3-(3-chloro-4-methylphenyl)-5-methyl-isoxazol-4-yl]benzenesulfonamide], the IC50 at COX-1 is 44 µM; on COX-2, less than 0.1 µM.

For `CC(C)c1onc(-c2ccccc2)c1-c1ccc(S(N)(=O)=O)cc1` [Example 1c, 4-[5-isopropyl-3-phenylisoxazol-4-yl]benzenesulfonamide], the IC50 on COX-1 is 6.2 µM; at COX-2 it was less than 0.1 µM.

Regarding `Cc1noc(-c2ccc(S(C)(=O)=O)cc2)c1-c1ccccc1` [Example 22, 3-Methyl-5-(4-methylsulfonylphenyl)-4-phenylisoxazole], the results for the IC50 on COX-1 and at COX-2 were more than 100 µM and 5.3 µM, respectively.

Regarding `Cc1onc(-c2ccccc2)c1-c1ccc(S(C)(=O)=O)cc1` [Example 5, 5-Methyl-4-[4-(methylsulfonyl)phenyl]-3-phenylisoxazole], the IC50 is more than 100 µM on COX-1 and 4 µM at COX-2.

In the case of `N#Cc1onc(-c2ccccc2)c1-c1ccc(S(N)(=O)=O)cc1` [Example 37, 4-[5-Cyano-3-phenylisoxazol-4-yl]benzenesulfonamide], the IC50 on COX-1 is more than 100 µM; at COX-2, 20 µM.

As to `Cc1onc(-c2cccc(Cl)c2)c1-c1ccc(S(N)(=O)=O)cc1` [Example 48, 4-[3-(3-Chlorophenyl)-5-methylisoxazol-4-yl]benzenesulfonamide], the IC50 turned out to be 93 µM at COX-1 and 0.3 µM at COX-2.

On to `CCc1noc(-c2ccc(C)cc2)c1-c1ccc(S(N)(=O)=O)cc1` [Example 17, 4-[3-Ethyl-5-(4-methylphenyl)isoxazol-4-yl]benzenesulfonamide], for which the IC50 is more than 100 µM at COX-1 and 2.1 µM on COX-2.

On to `COCc1onc(-c2ccccc2)c1-c1ccc(S(N)(=O)=O)cc1` [Example 1n, 4-[5-methoxymethyl-3-phenylisoxazol-4-yl]benzenesulfonamide], for which the results for the IC50 at COX-1 and at COX-2 were more than 100 µM and less than 0.1 µM, respectively.

Consider `NS(=O)(=O)c1ccc(-c2c(-c3ccccc3)noc2O)cc1` [Example 12, 4-[5-Hydroxy-3-phenylisoxazol-4-yl]benzenesulfonamide], for which the results for the IC50 at COX-1 and on COX-2 were more than 100 µM and 2.5 µM, respectively.

Take `Cc1onc(-c2ccc(Cl)c(Cl)c2)c1-c1ccc(S(N)(=O)=O)cc1` [Example 67, 4-[5-Methyl-3-(3,4-dichlorophenyl)isoxazol-4-yl]benzenesulfonamide]: the IC50 on COX-1 was 36 µM; at COX-2 it was 0.3 µM.

Take `Cc1ccc(-c2onc(C)c2-c2ccc(S(N)(=O)=O)cc2)cc1` [Example 19, 4-[3-Methyl-5-(4-methylphenyl)isoxazol-4-yl]benzenesulfonamide]: the results for the IC50 at COX-1 and at COX-2 were more than 100 µM and 8.7 µM, respectively.

Regarding `Cc1ccc(-c2noc(C(F)F)c2-c2ccc(S(N)(=O)=O)cc2)cc1` [Example 46, 4-[5-Difluoromethyl-3-(4-methylphenyl)isoxazol-4-yl]benzenesulfonamide], the IC50 at COX-1 came to 100 µM; at COX-2, 0.5 µM.

Take `CCCCc1onc(-c2ccccc2)c1-c1ccc(S(N)(=O)=O)cc1` [Example 1d, 4-[5-butyl-3-phenylisoxazol-4-yl]benzenesulfonamide]: the figures for the IC50 on COX-1 and at COX-2 were 25.8 µM and less than 0.1 µM, respectively.

On to `CSc1onc(-c2ccccc2)c1-c1ccc(S(N)(=O)=O)cc1` [Example 58, 4-[5-Methylthio-3-phenylisoxazol-4-yl]benzenesulfonamide], for which the IC50 is 14 µM on COX-1 and less than 0.1 µM at COX-2.

As for `NS(=O)(=O)c1ccc(-c2c(CC(O)c3ccc(Cl)cc3)noc2-c2ccccc2)cc1` (centres unmarked) [Example 28, 4-[3-[2-(4-Chlorophenyl)-2-hydroxyethyl]-5-phenylisoxazol-4-yl]benzenesulfonamide], the figures for the IC50 at COX-1 and at COX-2 were more than 100 µM and 0.1 µM, respectively.

In the case of `NS(=O)(=O)c1ccc(-c2c(-c3ccccc3)noc2CC(=O)C(F)(F)F)cc1` [Example 52, 4-[3-Phenyl-5-(3,3,3-trifluoro-2-oxopropyl)isoxazol-4-yl]benzenesulfonamide], the figures for the IC50 on COX-1 and on COX-2 were 93 µM and 0.2 µM, respectively.

Consider `COc1ccc(-c2noc(CC(=O)O)c2-c2ccc(S(C)(=O)=O)cc2)cc1F` [Example 6, [3-[3-Fluoro-4-methoxyphenyl]-4-[4-(methylsulfonyl)phenyl]isoxazol-5-yl]acetic acid], for which the IC50 on COX-1 is more than 100 µM; on COX-2, 35.7 µM.
